PMC4780082, “Evidence for Tautomerisation of Glutamine in BLUF Blue Light Receptors by Vibrational Spectroscopy and Computational Chemistry” (Scientific Reports, 2016)

Target: T1, BlrB (Cereibacter sphaeroides, UniProt Q3IYE4)
T1 construct: full-length short BLUF protein, residues 1-140, pET28a(+), His-tag removed by thrombin, E. coli BL21(DE3) glnA knockout; unlabelled and 15N-Gln samples
Test: light-induced FTIR difference spectroscopy of the reconstituted holoprotein
Assay type: binding
Conditions: FAD added for full reconstitution; flavin C4=O band of bound chromophore; pH 8.0; 20 °C

T1 sequence (Q3IYE4 entry or part of it): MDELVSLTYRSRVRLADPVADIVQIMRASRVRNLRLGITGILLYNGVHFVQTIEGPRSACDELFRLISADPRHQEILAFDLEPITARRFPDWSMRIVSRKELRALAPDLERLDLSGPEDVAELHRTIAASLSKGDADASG

Cc1cc2nc3c(=O)[nH]c(=O)nc-3n(C[C@H](O)[C@H](O)[C@H](O)COP(=O)(O)OP(=O)(O)OC[C@H]3O[C@@H](n4cnc5c(N)ncnc54)[C@H](O)[C@@H]3O)c2cc1C [flavin adenine dinucleotide]
light-induced FTIR difference spectroscopy of the reconstituted holoprotein: includes strong contributions from the C4=O stretch of flavin with an amide I band
